Results from article PMC12736293, “Design of Artificial Peptide Against HIV-1 Based on the Heptad-Repeat Rules and Membrane-Anchor Strategies” (Pharmaceuticals, 2025).
Read-outs that look alike come from different tables or passages of the source. Square brackets hold non-standard residues; d marks the D form. Peptide text beside a SMILES is read from it. * marks the point of attachment. X1 = CC(C)CCC[C@@H](C)[C@H]1CC[C@H]2[C@@H]3CC=C4C[C@@H](OC(=O)C*)CC[C@]4(C)[C@H]3CC[C@]12C; Palmitoyl = CCCCCCCCCCCCCCCC(=O)*; βAla = NCCC(=O)O

What was measured:
[1] = system: HIV-1 Env-mediated cell–cell fusion (H9/HIV-1 IIIB cells and MT-2 cells); type: cell-based; conditions: for IC50: Calcein AM-labelled H9/HIV-1 IIIB cells, peptide 30 min at 37 °C, then MT-2 cells 2 h, fused cells counted by fluorescence microscopy, triplicate, mean ± SD, read-out: IC50, inhibitory activity on HIV-1 Env-mediated cell–cell fusion
Description: 4.2. HIV-1 Env-Mediated Cell–Cell Fusion Assay
Briefly, the fluorescent reagent Calcein AM (abcam, Shanghai, China) was used to label H9/HIV-1 IIIB cells (obtained from the Inner Mongolia Autonomous Region New Drug Screening Engineering Research Center in Inner Mongolia Medical University, Hohhot, China). First, 2.5 μL of Calcein AM was used to stain 2 × 10^5 H9/HIV-1 IIIB cells. After labeling at 37 °C for 30 min, the cells were washed twice with PBS (Thermo Fisher Scientific, Waltham, MA, USA) and resuspended in fresh RPMI 1640 (Sigma-Aldrich, St. Louis, MO, USA) medium supplemented with 10% FBS. Next, 50 μL of diluted peptides and 50 μL of a mixture containing 2 × 10^5 H9/HIV-1 IIIB cells/mL were added to a 96-well cell culture plate and incubated at 37 °C for 30 min. Subsequently, 1 × 10^5 MT-2 cells were added to the mixture and cultured at 37 °C for 2 h. The fused cells were quantified using an inverted fluorescence microscope. The IC50 values were calculated using CalcuSyn software (Version 2.0).

[2] = system: HIV-1 pseudovirus derived from the JFRL macrophagic strain (subtype B) on U87 CD4+ CCR5+ cells; type: cell-based; conditions: luciferase read-out 48 h post-infection
Description: 4.3. Neutralization Assay of HIV-1 Pseudovirus
Briefly, U87 CD4^+ CCR5^+ cells (obtained from the Inner Mongolia Autonomous Region New Drug Screening Engineering Research Center in Inner Mongolia Medical University, Hohhot, China) (1 × 10^4 cells/well) were plated in 96-well tissue culture plates and incubated at 37 °C in a humidified 5% CO2 atmosphere for 12 h to allow cell adherence. Serial dilutions of the test peptides were prepared, and each dilution was mixed with the HIV-1 pseudovirus derived from the JFRL macrophagic strain (subtype B). After incubating the virus-peptide mixtures at 37 °C for 30 min to allow interaction, the mixtures were transferred to the pre-seeded U87 CD4^+ CCR5^+ cells. At 12 h post-infection, the culture medium was refreshed to remove unbound viruses and excess peptides. Forty-eight hours post-infection, the cells were lysed using Cell Culture Lysis Reagent (Promega, Madison, WI, USA), and the luminescence intensity (reflecting luciferase activity) was quantified using the Luciferase Assay System (Promega, E4030) according to the manufacturer’s instructions.

[3] = target: T1, N36/C34 six-helix bundle (6-HB) (Human immunodeficiency virus type 1 group M subtype B, UniProt P04578); test: SE-HPLC analysis of 6-HB formation between N36 and C34; type: biochemical, HIV-1; conditions: gradual addition of peptide to the C34/N36 mixture; PBS pH 7.4, BioSep-SEC-S2000, 210 nm
T1 construct: corresponding to the NHR region of gp41 (residues 546–581); made in house; host or cells: chemical synthesis (Fmoc solid-phase)

[4] = target: T1, N36/C34 six-helix bundle (6-HB); test: N-PAGE detection of blocking of 6-HB formation between C34 and N36; type: biochemical, HIV-1; conditions: N36 (20 μM) with rising peptide concentration, 37 °C 30 min, then C34 (20 μM) 30 min
Description: Figure 5 (A) N-PAGE to detect the blocking of 6-HB formation between C34 and N36 by EK35S peptide. N36 (20 μM) with or without EK35S was incubated at 37 °C for 30 min, followed by the addition of C34 (20 μM). The mixture was incubated at 37 °C for another 30 min before loading into the gel; (B) N-PAGE to detect the blocking of 6-HB formation between C34 and N36 by EK35S-Plam peptide. N36 (20 μM) with or without EK35S-Plam was incubated at 37 °C for 30 min, followed by the addition of C34 (20 μM). The mixture was incubated at 37 °C for another 30 min before loading into the gel.
4.6. Methods for Native Polyacrylamide Gel Electrophoresis (N-PAGE)
Peptides, as well as their equimolar mixtures, were prepared at a final concentration of 100 μM in PBS (10 mM, pH 7.4) and incubated at 37 °C for 30 min. After incubation, the peptide solutions were mixed with methyl green loading buffer in a 1:1 ratio, and 20 μL of each sample was loaded into the wells of the gel. Gel electrophoresis was performed at room temperature, initially at a constant voltage of 90 V for 0.5 h, followed by 150 V for 2–3 h. The gels were then stained with Coomassie Brilliant Blue G250 (Bio-Rad, Shanghai, China), and images were captured using the ChampGel 6000 Imaging System (Sage Creation Ltd., Beijing, China).

[5] = liver microsomes
Description: Phase I Metabolic Stability Assay
(§1) Experiments were carried out using the Phase I Metabolic Stability Research Kit (IPHASE, Suzhou, China). Solution A in the kit was pre-incubated at 37 °C for 5 min, and solution B was prepared from PBS (100 mM), the subject (or positive substrate), and liver microsomes. The above two were mixed and immediately placed in a 37 °C water bath for incubation. The incubation solution is quantitatively removed from the incubation system at preset time points (0, 5, 10, 15, 30, 60 min), and an equal volume of termination solution is added. Each sample was run in parallel three times. The substrate remaining amount at each time point was determined by RP-HPLC (Shimadzu preparative HPLC system, Shimadzu Corporation, Kyoto, Japan), the substrate remaining percentage was calculated, and the slope k was determined by linear regression analysis to calculate the Elimination half-life and Hepatic microsomal intrinsic clearance.

[6] = in vitro; conditions: liver microsomes
Description: Phase I Metabolic Stability Assay
as §1

T1 sequence (P04578 546-581): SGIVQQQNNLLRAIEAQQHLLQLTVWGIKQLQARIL

Compound	IC50 [1]	IC50 [2]	also measured
CC[C@H](C)[C@H](NC(C)=O)C(=O)N[C@@H](CCC(=O)O)C(=O)N[C@@H](CCC(=O)O)C(=O)N[C@@H](CC(C)C)C(=O)N[C@@H](CO)C(=O)N[C@@H](CCCCN)C(=O)N[C@@H](CCCCN)C(=O)N[C@H](C(=O)N[C@@H](CCC(=O)O)C(=O)N[C@@H](CCC(=O)O)C(=O)N[C@@H](CC(C)C)C(=O)N[C@@H](CO)C(=O)N[C@@H](CCCCN)C(=O)N[C@@H](CCCCN)C(=O)N[C@H](C(=O)N[C@@H](CCC(=O)O)C(=O)N[C@@H](CCC(=O)O)C(=O)N[C@@H](CC(C)C)C(=O)N[C@@H](CO)C(=O)N[C@@H](CCCCN)C(=O)N[C@@H](CCCCN)C(=O)N[C@H](C(=O)N[C@@H](CCC(=O)O)C(=O)N[C@@H](CCC(=O)O)C(=O)N[C@@H](CC(C)C)C(=O)N[C@@H](CO)C(=O)N[C@@H](CCCCN)C(=O)N[C@@H](CCCCN)C(=O)N[C@H](C(=O)N[C@@H](CCC(=O)O)C(=O)N[C@@H](CCC(=O)O)C(=O)N[C@@H](CC(C)C)C(=O)N[C@@H](CO)C(=O)N[C@@H](CCCCN)C(=O)N[C@@H](CCCCN)C(=O)NCCC(=O)N[C@@H](CSCC(=O)O[C@H]1CC[C@@]2(C)C(=CC[C@H]3[C@@H]4CC[C@H]([C@H](C)CCCC(C)C)[C@@]4(C)CC[C@@H]32)C1)C(N)=O)[C@@H](C)CC)[C@@H](C)CC)[C@@H](C)CC)[C@@H](C)CC [EK35S-Chol] (Ac-IEELSKKIEELSKKIEELSKKIEELSKKIEELSKK[βAla]C(X1)-NH2)	> 100 µM	85.7 ± 2.02 µM	
CCCCCCCCCCCCCCCC(=O)NCCCC[C@H](NC(=O)CCNC(=O)[C@H](CCCCN)NC(=O)[C@H](CCCCN)NC(=O)[C@H](CO)NC(=O)[C@H](CC(C)C)NC(=O)[C@H](CCC(=O)O)NC(=O)[C@H](CCC(=O)O)NC(=O)[C@@H](NC(=O)[C@H](CCCCN)NC(=O)[C@H](CCCCN)NC(=O)[C@H](CO)NC(=O)[C@H](CC(C)C)NC(=O)[C@H](CCC(=O)O)NC(=O)[C@H](CCC(=O)O)NC(=O)[C@@H](NC(=O)[C@H](CCCCN)NC(=O)[C@H](CCCCN)NC(=O)[C@H](CO)NC(=O)[C@H](CC(C)C)NC(=O)[C@H](CCC(=O)O)NC(=O)[C@H](CCC(=O)O)NC(=O)[C@@H](NC(=O)[C@H](CCCCN)NC(=O)[C@H](CCCCN)NC(=O)[C@H](CO)NC(=O)[C@H](CC(C)C)NC(=O)[C@H](CCC(=O)O)NC(=O)[C@H](CCC(=O)O)NC(=O)[C@@H](NC(=O)[C@H](CCCCN)NC(=O)[C@H](CCCCN)NC(=O)[C@H](CO)NC(=O)[C@H](CC(C)C)NC(=O)[C@H](CCC(=O)O)NC(=O)[C@H](CCC(=O)O)NC(=O)[C@@H](NC(C)=O)[C@@H](C)CC)[C@@H](C)CC)[C@@H](C)CC)[C@@H](C)CC)[C@@H](C)CC)C(N)=O [EK35S-Palm] (Ac-IEELSKKIEELSKKIEELSKKIEELSKKIEELSKK[βAla]K(Palmitoyl)-NH2)			fold more potent than the parent EK35S ([1]; cell–cell fusion and pseudovirus inhibition (Table 2 and Figure 3)): over 200 fold; effect on the 6-HB complex peak (SE-HPLC) [3]: decreased significantly; effect on the 6-HB band (N-PAGE) [4]: gradually became significantly lighter; half-life [5]: 3.61 h
Ac-IEELFKKIEELFKKIEELFKKIEELFKKIEELFKK-NH2 [EK35F]	92.4 ± 9.22 µM	110 ± 2.37 µM	
Ac-IEELIKKIEELIKKIEELIKKIEELIKKIEELIKK-NH2 [EK35]	> 100 µM	119 ± 1.39 µM	
Ac-IEELMKKIEELMKKIEELMKKIEELMKKIEELMKK-NH2 [EK35M]	15.8 ± 8.92 µM	25.3 ± 0.85 µM	
Ac-IEELSKKIEELSKKIEELSKKIEELSKKIEELSKK-NH2 [EK35S]	5.98 ± 1.23 µM	2.42 ± 0.18 µM	effect on the 6-HB complex peak (SE-HPLC) [3]: does not affect 6-HB peak; effect on the 6-HB band (N-PAGE) [4]: no obvious change; half-life [6]: 2.22 h
Ac-IEELYKKIEELYKKIEELYKKIEELYKKIEELYKK-NH2 [EK35Y]	23.2 ± 6.72 µM	15.2 ± 0.65 µM	
Enfuvirtide	0.008 ± 0.002 µM	0.00824 ± 0.00087 µM	
IEELSKK IEELSKK IEELSKK IEELSKK IEELSKK-OApc [EK35S-OApc, EK35S conjugated with protected oleanolic acid derivative OApc via click chemistry]	4.82 ± 0.89 µM	1.88 ± 0.14 µM	
enfuvirtide			half-life [6]: 2.51 h
